Test results published in US20240132461A1, “FLAVONE DEAZA SPERMIDINE ANALOGUES AND THEIR USE TREATING CANCER” (FLORATEK PHARMA S.A., priority 2021, published 2024).
Counter-ions that a name gives are not always drawn.

What was measured:
[1] = tested on: MIA-Pa-Ca-2; experiment: Cell viability assay, pancreatic carcinoma cell line MIA-Pa-Ca-2; format: cell-based; details: Homo sapiens, MIA PaCa-2; MIA-Pa-Ca-2 pancreatic carcinoma cell line
Method: (§1) Antitumor activity of the compounds and doxorubicin as a positive control was assessed by using the CellTiter-Blue Cell Viability Assay (Promega, #G8082) or CellTiter-Glow® Luminescent Cell Viability assay (Promega # G7572) according to the manufacturer's instructions. The compounds were tested at 5 or 6 concentrations in half-log increments (highest concentration 30 μM-100 μM) in duplicate or triplicate well conditions.
(§2) Tumor cells were grown at 37° C. in a humidified atmosphere with 5% CO2 in RPMI 1640 or DMEM medium, supplemented with 10% (v/v) fetal calf serum and 50 μg/ml gentamicin for up to 20 passages, and were passaged once or twice weekly. Cells were harvested using TrypLE or PBS buffer containing 1 mM EDTA, and the percentage of viable cells is determined using a CASY Model TT cell counter (OMNI Life Science). Cells were harvested from exponential phase cultures, counted and plated in 96 well flat-bottom microtiter plates at a cell density depending on the cell line's growth rate (4,000-20,000 cells/well depending on the cell line's growth rate, up to 60,000 for hematological cancer cell lines) in RPMI 1640 or DMEM medium supplemented with 10% (v/v) fetal calf serum and 50 μg/ml gentamicin (140 μl/well). Cultures were incubated at 37° C. and 5% CO2 in a humidified atmosphere. After 24 h, 10 μl of test compounds or control medium are added, and left on the cells for another 72 h. Compounds were serially diluted in DMSO, transferred in cell culture medium, and added to the assay plates. The DMSO concentration was kept constant at <0.3% v/v across the assay plate. Viability of cells was quantified by the CellTiter-Blue® cell viability assay (Promega G8081) or CellTiter-Glow® Luminescent Cell Viability assay (Promega # G7572). Fluorescence (FU) was measured by using the EnSpire® multimode plate reader (Perkin Elmer) (excitation λ=570 nm, emission λ=600 nm) or luminescent detection of ATP in viable cells was used as parameter for proliferation. Luminescence was measured with the microplate luminometer (Promega or Perkin Elmer).
(§3) Sigmoidal concentration-response curves were fitted to the data points (test-versus-control, T/C values) obtained for each tumor model using 4 parameter non-linear curve fit (Charles River DRS Datawarehouse Software) or with GraphPad prism 5.02 software. IC50 values are reported as absolute IC50 values, being the concentration of test compound at the intersection of the concentration-response curves with T/C=50%

[2] = tested on: Panc-1; experiment: Cell viability assay, pancreatic carcinoma cell line Panc-1; format: cell-based; details: Homo sapiens; Panc-1 pancreatic carcinoma cell line
Method: as §1, §2, §3

[3] = tested on: pancreatic carcinoma cell; experiment: Cell viability assay, pancreatic carcinoma cell lines (summary); format: cell-based; details: summary of Table 12; read-out: IC50s, pancreatic carcinoma cell growth
Method: as §1, §2, §3

[4] = tested on: CALU-6; experiment: Cell viability assay, non-small cell lung carcinoma cell line CALU-6; format: cell-based; details: Homo sapiens; CALU-6 non-small cell lung carcinoma cell line
Method: as §1, §2, §3

[5] = tested on: lung carcinoma cell; experiment: Cell viability assay, lung carcinoma cell lines (summary); format: cell-based; details: summary of Tables 7A-E; read-out: IC50s, lung carcinoma cell growth
Method: as §1, §2, §3

[6] = tested on: NCI-H1299; experiment: Cell viability assay, non-small cell lung carcinoma cell line NCI-H1299; format: cell-based; details: Homo sapiens
Method: as §1, §2, §3

[7] = In vivo maximum tolerated dose in NOG mice; details: for tolerability at the highest dose administered: 8-10 mg/kg i.p., daily or every other day over 8 days; for MTD at 8 days: mouse, in vivo, ip, repeated i.p. administration, MTD not reached, read-out: maximum tolerated dose (MTD), estimated
Method: In order to evaluate the general toxicity of selected SND compounds in an animal model, a maximum tolerated dose (MTD) in NOG mice has been undertaken. Three mice per group were treated daily or every other day over 8 days at various doses between 5 mg/kg and 10 mg/kg. Administration of the compounds was i.p. A stock solution of the compounds (40 mg/ml in DMSO) was prepared and frozen at −20° C. in aliquots for each treatment. […] Body weights were measured before each treatment. Mice were further observed for 1 week after the last treatment.

[8] = tested on: HL-60; experiment: Cell viability assay, acute promyelocytic leukemia cell line HL-60; format: cell-based; details: Homo sapiens; HL-60 acute promyelocytic leukemia cell line
Method: as §1, §2, §3

[9] = tested on: H69AR; experiment: Cell viability assay, resistant small cell lung carcinoma cell line H69AR; format: cell-based; details: H69AR multiple drug resistant small cell lung carcinoma cell line
Method: as §1, §2, §3
The multiple drug resistant cell line H69AR obtained from ATCC, was established from NCI-H69 cells that were grown in the presence of increasing concentrations of adriamycin (doxorubicin). The H69AR cell line is approximately 50-fold resistant to adriamycin as compared to the parental NCI-H69 cell line. SND141, SND142, SND143, SND146, SND147 and SND148 inhibited the resistant cell line H69AR with IC50s below 5 μM, as presented in Table 8.

[10] = tested on: HCT-116; experiment: Cell viability assay, colon cancer cell line HCT-116; format: cell-based
Method: as §1
Tumor cells were grown at 37° C. in a humidified atmosphere with 5% CO2 in RPMI 1640 or DMEM medium, supplemented with 10% (v/v) fetal calf serum and 50 μg/ml gentamicin for up to 20 passages, and were passaged once or twice weekly. Cells were harvested using TrypLE or PBS buffer containing 1 mM EDTA, and the percentage of viable cells is determined using a CASY Model TT cell counter (OMNI Life Science). Cells were harvested from exponential phase cultures, counted and plated in 96 well flat-bottom microtiter plates at a cell density depending on the cell line's growth rate (4,000-20,000 cells/well depending on the cell line's growth rate, up to 60,000 for hematological cancer cell lines) in RPMI 1640 or DMEM medium supplemented with 10% (v/v) fetal calf serum and 50 μg/ml gentamicin (140 μl/well). […] Viability of cells was quantified by the CellTiter-Blue® cell viability assay (Promega G8081) or CellTiter-Glow® Luminescent Cell Viability assay (Promega # G7572). […]

[11] = tested on: melanoma cell lines; experiment: Cell viability assay, melanoma cell lines (summary); format: cell-based; details: summary of Tables 14A and 14B; read-out: IC50s, melanoma cell lines growth
Method: as §1, §2, §3

[12] = tested on: A375; experiment: Cell viability assay, melanoma cell line A375; format: cell-based; details: Homo sapiens, A-375
Method: as §1, §2, §3

[13] = tested on: NCI-H1437; experiment: Cell viability assay, non-small lung carcinoma cell line NCI-H1437; format: cell-based; details: Homo sapiens
Method: as §1, §2, §3

[14] = tested on: LN-229; experiment: Cell viability assay, brain carcinoma cell line LN-229; format: cell-based; details: Homo sapiens; LN-229 brain carcinoma cell line, 72 h, absolute IC50
Method: as §1, §2, §3

[15] = tested on: MDA-MB-468; experiment: Cell viability assay, breast carcinoma cell line MDA-MB-468; format: cell-based; details: Homo sapiens; MDA-MB-468 breast carcinoma cell line
Method: as §1
as §2, with “Elmer). […]” for “Elmer).”

[16] = tested on: NCI-H441; experiment: Cell viability assay, mucoepidermoid pulmonary and adenocarcinoma, NCI-H441; format: cell-based; details: Homo sapiens
Method: as §1
as §2, with “Elmer). […]” for “Elmer).”

[17] = tested on: brain cancer cell; experiment: Cell viability assay, brain cancer cell lines (summary); format: cell-based; details: summary of Tables 3A-D; read-out: IC50s, brain cancer cell growth
Method: as §1, §2, §3

[18] = tested on: U-251; experiment: Cell viability assay, brain carcinoma cell line U-251; format: cell-based; details: Homo sapiens; U-251 brain carcinoma cell line, 72 h, absolute IC50
Method: as §1, §2, §3

[19] = tested on: U-87MG; experiment: Cell viability assay, brain carcinoma cell line U-87MG; format: cell-based; details: Homo sapiens; U-87MG brain carcinoma cell line, 72 h, absolute IC50
Method: as §1, §2, §3

[20] = tested on: DMS114; experiment: Cell viability assay, small cell lung carcinoma cell line DMS114; format: cell-based; details: Homo sapiens, DMS-114
Method: as §1
as §2, with “Elmer). […]” for “Elmer).”

[21] = tested on: breast cancer cell; experiment: Cell viability assay, breast cancer cell lines (summary); format: cell-based; details: summary of Tables 4A and 4B; read-out: IC50s, breast cancer cell growth
Method: as §1, §2, §3

[22] = tested on: NCI-H292; experiment: Cell viability assay, mucoepidermoid pulmonary and adenocarcinoma, NCI-H292; format: cell-based; details: Homo sapiens
Method: as §1
as §2, with “Elmer). […]” for “Elmer).”

[23] = tested on: MeWo; experiment: Cell viability assay, melanoma cell line MeWo; format: cell-based; details: Homo sapiens
Method: as §1
as §2, with “Elmer). […]” for “Elmer).”

[24] = tested on: SH-SY-5Y; experiment: Cell viability assay, brain carcinoma cell line SH-SY-5Y; format: cell-based; details: Homo sapiens, SH-SY5Y; SH-SY-5Y brain carcinoma cell line, 72 h, absolute IC50
Method: as §1
as §2, with “Elmer). […]” for “Elmer).”

COc1c(O)ccc2c(=O)cc(-c3ccc(CCCCN(C)C)cc3)oc12 [SND141, 2-(4-(4-(dimethylamino)butyl)phenyl)-7-hydroxy-8-methoxy-4H-chromen-4-one]
IC50 [1]: 2.3 µM | IC50 [2]: 3.91 µM | IC50 [3]: < 10 µM

COc1c(O)ccc2c(=O)cc(-c3ccc(CCCCN4CCN(C)CC4)cc3)oc12 [SND142, 7-Hydroxy-8-methoxy-2-(4-(4-(4-methylpiperazin-1-yl)butyl)phenyl)-4H-chromen-4-one]
IC50 [1]: 1 µM | IC50 [4]: 1.7 µM | IC50 [5]: < 20 µM | IC50 [6]: 1 µM | tolerability at the highest dose administered [7]: well tolerated | MTD at 8 days [7]: > 10 mg/kg | IC50 [8]: 3.48 µM | IC50 [2]: 1.6 µM | IC50 [3]: < 10 µM

COc1c(O)ccc2c(=O)cc(-c3ccc(CCCCN4CCOCC4)cc3)oc12 [SND147, 7-hydroxy-8-methoxy-2-(4-(4-morpholinobutyl)phenyl)-4H-chromen-4-one]
IC50 [1]: 2.02 µM | IC50 [4]: 12.2 µM | IC50 [5]: < 20 µM | tolerability at the highest dose administered [7]: well tolerated | MTD at 8 days [7]: > 10 mg/kg | IC50 [2]: 3.8 µM | IC50 [3]: < 10 µM | IC50 [9]: 2.6 µM | IC50 ([9]; Homo sapiens, H69AR): < 5 µM

COc1c(O)ccc2c(=O)cc(-c3ccc(CN4CCCC4)cc3)oc12 [SND163]
IC50 [6]: 5.8 µM

COc1c(O)ccc2c(=O)cc(-c3ccc(CN(C)CCN4CCCCC4)cc3)oc12 [SND167]
IC50 [5]: < 20 µM | IC50 [6]: 2.7 µM

COc1c(O)ccc2c(=O)cc(-c3ccc(CN4CCCCC4)cc3)oc12 [SND168]
IC50 [5]: < 20 µM | IC50 [6]: 3.7 µM

O=c1cc(-c2ccc(CCCN3CCCCC3)cc2)oc2c(O)c(O)ccc12 [SND172]
IC50 ([10]; HCT-116 colon cancer cell line): 11.4 µM | IC50 ([10]; Homo sapiens, HCT-116, HCT-116 colon cancer cell line): < 20 µM

CN(CCCc1ccc(-c2cc(=O)c3ccc(O)c(O)c3o2)cc1)CCN1CCN(C)CC1 [SND173, 7,8-Dihydroxy-2-(4-(3-(methyl(2-(4-methylpiperazin-1-yl)ethyl)amino)propyl)phenyl)-4H-chromen-4-one trihydrochloride]
IC50 [11]: < 10 µM | IC50 [12]: 10 µM

O=c1cc(-c2ccc(CCCCN3CCCCC3)cc2)oc2c3c(ccc12)OCO3 [SND390]
IC50 [13]: 10 µM | IC50 [14]: 7 µM

CN(CCCCc1ccc(-c2cc(=O)c3ccc4c(c3o2)OCO4)cc1)CCCN1CCCCC1 [SND391]
IC50 [4]: 4 µM | IC50 [5]: < 20 µM | IC50 [15]: 1.2 µM | IC50 [16]: 1.2 µM | IC50 [11]: < 10 µM | IC50 [13]: 1.4 µM | IC50 [17]: < 10 µM | IC50 [8]: 2.4 µM | IC50 [18]: 3.9 µM | IC50 [12]: 1.3 µM | IC50 [19]: 5.1 µM | IC50 [20]: 1.1 µM | IC50 [21]: < 10 µM | IC50 [22]: 0.98 µM | IC50 [23]: 1.9 µM | IC50 [24]: 3 µM | IC50 [14]: 2.8 µM

NCCCNCCCCNCCCCc1ccc(-c2cc(=O)c3ccc4c(c3o2)OCO4)cc1 [SND392]
IC50 [4]: 7 µM | IC50 [5]: < 20 µM | IC50 [16]: 5.4 µM | IC50 [11]: < 10 µM | IC50 [13]: 3.1 µM | IC50 [8]: 5.9 µM | IC50 [18]: 8.4 µM | IC50 [19]: 7.6 µM | IC50 [20]: 5.4 µM | IC50 [22]: 3.8 µM | IC50 [23]: 9.8 µM | IC50 [24]: 3.7 µM | IC50 [14]: 11 µM

CN(CCCCc1ccc(-c2cc(=O)c3ccc4c(c3o2)OCO4)cc1)C12CC3CC(CC(C3)C1)C2 [SND393]
IC50 [4]: 7 µM | IC50 [5]: < 20 µM | IC50 [15]: 3.2 µM | IC50 [11]: < 10 µM | IC50 [17]: < 10 µM | IC50 [18]: 6.8 µM | IC50 [12]: 2.7 µM | IC50 [19]: 7.1 µM | IC50 [21]: < 10 µM | IC50 [24]: 4.7 µM

CCN(CCCCc1ccc(-c2cc(=O)c3ccc4c(c3o2)OCO4)cc1)Cc1ccccc1OC [SND394]
IC50 [4]: 8.9 µM | IC50 [5]: < 20 µM | IC50 [15]: 3.8 µM | IC50 [16]: 3.2 µM | IC50 [13]: 2.1 µM | IC50 [17]: < 10 µM | IC50 [8]: 2.8 µM | IC50 [18]: 7.6 µM | IC50 [19]: 7.6 µM | IC50 [20]: 3.1 µM | IC50 [21]: < 10 µM | IC50 [22]: 1.9 µM | IC50 [14]: 2.9 µM
